Tests used:
Assay in all cases: relative viability (nuclei count vs DMSO), 5 days (fraction); higher = more cells survive
BGJ398 + Dasatinib = compound: CCN1CCN(c2ccc(Nc3cc(N(C)C(=O)Nc4c(Cl)c(OC)cc(OC)c4Cl)ncn3)cc2)CC1 [BGJ398] + Cc1nc(Nc2ncc(C(=O)Nc3c(C)cccc3Cl)s2)cc(N2CCN(CCO)CC2)n1 [Dasatinib] (partner 0.075 µM)
How it was run: (§1)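 Lung cancer cell lines were pin-tool dosed in 1536-well plates on the day after seeding, with either a lone drug or a fixed anchor-drug dose plus five library-drug doses (not always all listed) in √10 steps. Nuclei were counted on 4× images after 5 days. Relative viability is the ratio of treated-well to vehicle-well nuclei counts, with each value a median of duplicate plates.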

BGJ398 + Luminespib = compound: CCN1CCN(c2ccc(Nc3cc(N(C)C(=O)Nc4c(Cl)c(OC)cc(OC)c4Cl)ncn3)cc2)CC1 [BGJ398] + CCNC(=O)c1noc(-c2cc(C(C)C)c(O)cc2O)c1-c1ccc(CN2CCOCC2)cc1 [Luminespib] (partner 0.01 µM)
How it was run: as §1

[1] = compound: C1=CC2=NC=CN=C2C=C1/C=C/3\C(=O)NC(=O)S3 + CC(C)C[C@H](NC(=O)[C@H](Cc1ccccc1)NC(=O)c1cnccn1)B(O)O [Bortezomib] (partner 0.002 µM)
How it was run: as §1

[2] = compound: C1=CC2=NC=CN=C2C=C1/C=C/3\C(=O)NC(=O)S3 + Nc1ncn([C@H]2C[C@H](O)[C@@H](CO)O2)c(=O)n1 [Decitabine] (partner 2 µM)
How it was run: as §1

NCI-H2023
relative viability (BGJ398 + Dasatinib; first compound 0.01 µM): 0.517 | relative viability (BGJ398 + Dasatinib; first compound 0.03162 µM): 0.537 | relative viability (BGJ398 + Dasatinib; first compound 0.1 µM): 0.582 | relative viability (BGJ398 + Dasatinib; first compound 0.3162 µM): 0.489 | relative viability (BGJ398 + Dasatinib; first compound 1 µM): 0.438 | relative viability (BGJ398 + Luminespib; first compound 0.01 µM): 0.627 | relative viability (BGJ398 + Luminespib; first compound 0.03162 µM): 0.849 | relative viability (BGJ398 + Luminespib; first compound 0.1 µM): 0.739 | relative viability (BGJ398 + Luminespib; first compound 0.3162 µM): 0.851 | relative viability (BGJ398 + Luminespib; first compound 1 µM): 0.809 | relative viability ([1]; first compound 0.02 µM): 0.924 | relative viability ([1]; first compound 0.06325 µM): 0.923 | relative viability ([1]; first compound 0.2 µM): 1.03 | relative viability ([1]; first compound 0.6325 µM): 0.875 | relative viability ([1]; first compound 2 µM): 0.645 | relative viability ([2]; first compound 0.02 µM): 0.205 | relative viability ([2]; first compound 0.06325 µM): 0.237 | relative viability ([2]; first compound 0.2 µM): 0.205 | relative viability ([2]; first compound 0.6325 µM): 0.195 | relative viability ([2]; first compound 2 µM): 0.222

NCI-H2085
relative viability (BGJ398 + Dasatinib; first compound 0.01 µM): 0.272 | relative viability (BGJ398 + Dasatinib; first compound 0.03162 µM): 0.236 | relative viability (BGJ398 + Dasatinib; first compound 0.1 µM): 0.215 | relative viability (BGJ398 + Dasatinib; first compound 0.3162 µM): 0.279 | relative viability (BGJ398 + Dasatinib; first compound 1 µM): 0.229 | relative viability (BGJ398 + Luminespib; first compound 0.01 µM): 0.308 | relative viability (BGJ398 + Luminespib; first compound 0.03162 µM): 0.485 | relative viability (BGJ398 + Luminespib; first compound 0.1 µM): 0.564 | relative viability (BGJ398 + Luminespib; first compound 0.3162 µM): 0.498 | relative viability (BGJ398 + Luminespib; first compound 1 µM): 0.422 | relative viability ([1]; first compound 0.02 µM): 1.03 | relative viability ([1]; first compound 0.06325 µM): 1.07 | relative viability ([1]; first compound 0.2 µM): 1.02 | relative viability ([1]; first compound 0.6325 µM): 0.824 | relative viability ([1]; first compound 2 µM): 1.01 | relative viability ([2]; first compound 0.02 µM): 0.495 | relative viability ([2]; first compound 0.06325 µM): 0.457 | relative viability ([2]; first compound 0.2 µM): 0.578 | relative viability ([2]; first compound 0.6325 µM): 0.539 | relative viability ([2]; first compound 2 µM): 0.566

NCI-H2087
relative viability (BGJ398 + Dasatinib; first compound 0.01 µM): 0.824 | relative viability (BGJ398 + Dasatinib; first compound 0.03162 µM): 0.898 | relative viability (BGJ398 + Dasatinib; first compound 0.1 µM): 0.808 | relative viability (BGJ398 + Dasatinib; first compound 0.3162 µM): 0.801 | relative viability (BGJ398 + Dasatinib; first compound 1 µM): 0.871 | relative viability (BGJ398 + Luminespib; first compound 0.01 µM): 0.177 | relative viability (BGJ398 + Luminespib; first compound 0.03162 µM): 0.186 | relative viability (BGJ398 + Luminespib; first compound 0.1 µM): 0.173 | relative viability (BGJ398 + Luminespib; first compound 0.3162 µM): 0.203 | relative viability (BGJ398 + Luminespib; first compound 1 µM): 0.133 | relative viability ([1]; first compound 0.02 µM): 0.831 | relative viability ([1]; first compound 0.06325 µM): 0.942 | relative viability ([1]; first compound 0.2 µM): 0.68 | relative viability ([1]; first compound 0.6325 µM): 0.809 | relative viability ([1]; first compound 2 µM): 0.805 | relative viability ([2]; first compound 0.02 µM): 0.355 | relative viability ([2]; first compound 0.06325 µM): 0.255 | relative viability ([2]; first compound 0.2 µM): 0.256 | relative viability ([2]; first compound 0.6325 µM): 0.253 | relative viability ([2]; first compound 2 µM): 0.267

NCI-H2126
relative viability (BGJ398 + Dasatinib; first compound 0.01 µM): 0.696 | relative viability (BGJ398 + Dasatinib; first compound 0.03162 µM): 0.646 | relative viability (BGJ398 + Dasatinib; first compound 0.1 µM): 0.565 | relative viability (BGJ398 + Dasatinib; first compound 0.3162 µM): 0.687 | relative viability (BGJ398 + Dasatinib; first compound 1 µM): 0.563 | relative viability (BGJ398 + Luminespib; first compound 0.01 µM): 0.894 | relative viability (BGJ398 + Luminespib; first compound 0.03162 µM): 0.973 | relative viability (BGJ398 + Luminespib; first compound 0.1 µM): 0.926 | relative viability (BGJ398 + Luminespib; first compound 0.3162 µM): 0.891 | relative viability (BGJ398 + Luminespib; first compound 1 µM): 0.832 | relative viability ([1]; first compound 0.02 µM): 1.08 | relative viability ([1]; first compound 0.06325 µM): 1.16 | relative viability ([1]; first compound 0.2 µM): 1.11 | relative viability ([1]; first compound 0.6325 µM): 1.08 | relative viability ([1]; first compound 2 µM): 0.716 | relative viability ([2]; first compound 0.02 µM): 0.567 | relative viability ([2]; first compound 0.06325 µM): 0.647 | relative viability ([2]; first compound 0.2 µM): 0.567 | relative viability ([2]; first compound 0.6325 µM): 0.527 | relative viability ([2]; first compound 2 µM): 0.481

NCI-H2347
relative viability (BGJ398 + Dasatinib; first compound 0.01 µM): 0.314 | relative viability (BGJ398 + Dasatinib; first compound 0.03162 µM): 0.291 | relative viability (BGJ398 + Dasatinib; first compound 0.1 µM): 0.342 | relative viability (BGJ398 + Dasatinib; first compound 0.3162 µM): 0.278 | relative viability (BGJ398 + Dasatinib; first compound 1 µM): 0.262 | relative viability (BGJ398 + Luminespib; first compound 0.01 µM): 0.396 | relative viability (BGJ398 + Luminespib; first compound 0.03162 µM): 0.666 | relative viability (BGJ398 + Luminespib; first compound 0.1 µM): 0.746 | relative viability (BGJ398 + Luminespib; first compound 0.3162 µM): 0.471 | relative viability (BGJ398 + Luminespib; first compound 1 µM): 0.453 | relative viability ([1]; first compound 0.02 µM): 0.769 | relative viability ([1]; first compound 0.06325 µM): 1.17 | relative viability ([1]; first compound 0.2 µM): 1.05 | relative viability ([1]; first compound 0.6325 µM): 0.932 | relative viability ([1]; first compound 2 µM): 0.926 | relative viability ([2]; first compound 0.02 µM): 0.631 | relative viability ([2]; first compound 0.06325 µM): 0.829 | relative viability ([2]; first compound 0.2 µM): 0.631 | relative viability ([2]; first compound 0.6325 µM): 0.586 | relative viability ([2]; first compound 2 µM): 0.546

NCI-H2405
relative viability (BGJ398 + Dasatinib; first compound 0.01 µM): 0.213 | relative viability (BGJ398 + Dasatinib; first compound 0.03162 µM): 0.236 | relative viability (BGJ398 + Dasatinib; first compound 0.1 µM): 0.233 | relative viability (BGJ398 + Dasatinib; first compound 0.3162 µM): 0.225 | relative viability (BGJ398 + Dasatinib; first compound 1 µM): 0.192 | relative viability (BGJ398 + Luminespib; first compound 0.01 µM): 0.818 | relative viability (BGJ398 + Luminespib; first compound 0.03162 µM): 0.807 | relative viability (BGJ398 + Luminespib; first compound 0.1 µM): 0.668 | relative viability (BGJ398 + Luminespib; first compound 0.3162 µM): 0.758 | relative viability (BGJ398 + Luminespib; first compound 1 µM): 0.686 | relative viability ([1]; first compound 0.02 µM): 0.96 | relative viability ([1]; first compound 0.06325 µM): 1.06 | relative viability ([1]; first compound 0.2 µM): 0.991 | relative viability ([1]; first compound 0.6325 µM): 1 | relative viability ([1]; first compound 2 µM): 0.782 | relative viability ([2]; first compound 0.02 µM): 0.686 | relative viability ([2]; first compound 0.06325 µM): 0.818 | relative viability ([2]; first compound 0.2 µM): 0.751 | relative viability ([2]; first compound 0.6325 µM): 0.793 | relative viability ([2]; first compound 2 µM): 0.586

Reference: the supplement of paper PMC10307832
